± gives the expanded uncertainty stated by the source.
Experiment: xn = mol fraction of the nth substance listed
Details: 100 kPa, Liquid, Vibrating tube method

CCC(O)CC [3-pentanol] + O
mass density [kg/m3]
Details	x1 = 0.00117	x1 = 0.00216	x1 = 0.00361	x1 = 0.00517	x1 = 0.00616	x1 = 0.00773	x1 = 0.00866	x1 = 1
273.65 K	999.121 ± 0.16	998.483 ± 0.15	997.636 ± 0.16	996.791 ± 0.15	996.228 ± 0.15	995.539 ± 0.14	995.114 ± 0.14	835.7 ± 2.1
274.15 K	999.145 ± 0.16	998.504 ± 0.15	997.655 ± 0.16	996.809 ± 0.15	996.243 ± 0.15	995.55 ± 0.14	995.121 ± 0.14	835.3 ± 2.1
274.65 K	999.166 ± 0.16	998.525 ± 0.15	997.681 ± 0.16	996.827 ± 0.15	996.257 ± 0.15	995.562 ± 0.15	995.131 ± 0.14	834.9 ± 2.1
275.15 K	999.182 ± 0.16	998.545 ± 0.15	997.694 ± 0.16	996.837 ± 0.15	996.27 ± 0.15	995.568 ± 0.15	995.137 ± 0.14	834.5 ± 2.1
275.65 K	999.2 ± 0.16	998.559 ± 0.16	997.704 ± 0.16	996.842 ± 0.15	996.271 ± 0.15	995.572 ± 0.15	995.134 ± 0.14	834.1 ± 2.1
276.15 K	999.21 ± 0.16	998.568 ± 0.16	997.714 ± 0.16	996.849 ± 0.15	996.277 ± 0.15	995.571 ± 0.15	995.134 ± 0.14	833.7 ± 2.1
276.65 K	999.216 ± 0.16	998.574 ± 0.16	997.718 ± 0.16	996.852 ± 0.15	996.271 ± 0.15	995.565 ± 0.15	995.128 ± 0.15	833.3 ± 2.1
277.15 K	999.214 ± 0.16	998.574 ± 0.16	997.712 ± 0.16	996.843 ± 0.15	996.263 ± 0.15	995.555 ± 0.15	995.116 ± 0.15	832.9 ± 2.1
277.65 K	999.21 ± 0.16	998.562 ± 0.16	997.704 ± 0.16	996.832 ± 0.15	996.251 ± 0.15	995.537 ± 0.15	995.092 ± 0.15	832.5 ± 2.1
278.15 K	999.206 ± 0.16	998.556 ± 0.16	997.698 ± 0.16	996.822 ± 0.15	996.238 ± 0.15	995.523 ± 0.15	995.08 ± 0.15	832.1 ± 2.1
278.65 K	999.194 ± 0.16	998.549 ± 0.16	997.686 ± 0.16	996.805 ± 0.15	996.219 ± 0.15	995.503 ± 0.15	995.05 ± 0.15	831.7 ± 2.1
279.15 K	999.182 ± 0.16	998.533 ± 0.16	997.668 ± 0.16	996.789 ± 0.15	996.197 ± 0.15	995.475 ± 0.15	995.023 ± 0.15	831.3 ± 2.1
279.65 K	999.159 ± 0.16	998.5 ± 0.16	997.635 ± 0.16	996.752 ± 0.15	996.159 ± 0.15	995.434 ± 0.15	994.98 ± 0.15	830.9 ± 2.1
280.15 K	999.14 ± 0.16	998.48 ± 0.16	997.609 ± 0.16	996.729 ± 0.15	996.134 ± 0.15	995.406 ± 0.15	994.948 ± 0.15	830.5 ± 2.1
280.65 K	999.119 ± 0.17	998.457 ± 0.16	997.582 ± 0.16	996.698 ± 0.15	996.103 ± 0.15	995.368 ± 0.15	994.912 ± 0.15	830.1 ± 2.1
281.15 K	999.084 ± 0.17	998.424 ± 0.16	997.551 ± 0.16	996.663 ± 0.15	996.061 ± 0.15	995.327 ± 0.15	994.867 ± 0.15	829.7 ± 2.1
281.65 K	999.053 ± 0.17	998.388 ± 0.16	997.515 ± 0.16	996.619 ± 0.15	996.024 ± 0.15	995.286 ± 0.15	994.819 ± 0.15	829.3 ± 2.1
282.15 K	999.017 ± 0.17	998.353 ± 0.16	997.476 ± 0.16	996.581 ± 0.15	995.981 ± 0.15	995.24 ± 0.15	994.77 ± 0.15	828.9 ± 2.1

Source: the NIST ThermoML archive (doi:10.1016/j.jct.2017.07.011)
